{
  "source": "patent US20150045410A1",
  "about": "“METHOD OF REGULATING CFTR EXPRESSION AND PROCESSING” (University of Iowa Research Foundation, priority 2012, published 2015)",
  "target": "T1, CFTR-ΔF508 (Homo sapiens, UniProt P13569, DEL508-508)",
  "T1 construct": "expressed in transfected cells",
  "T1 sequence (P13569 with tags, fused parts or gaps DEL508-508)": "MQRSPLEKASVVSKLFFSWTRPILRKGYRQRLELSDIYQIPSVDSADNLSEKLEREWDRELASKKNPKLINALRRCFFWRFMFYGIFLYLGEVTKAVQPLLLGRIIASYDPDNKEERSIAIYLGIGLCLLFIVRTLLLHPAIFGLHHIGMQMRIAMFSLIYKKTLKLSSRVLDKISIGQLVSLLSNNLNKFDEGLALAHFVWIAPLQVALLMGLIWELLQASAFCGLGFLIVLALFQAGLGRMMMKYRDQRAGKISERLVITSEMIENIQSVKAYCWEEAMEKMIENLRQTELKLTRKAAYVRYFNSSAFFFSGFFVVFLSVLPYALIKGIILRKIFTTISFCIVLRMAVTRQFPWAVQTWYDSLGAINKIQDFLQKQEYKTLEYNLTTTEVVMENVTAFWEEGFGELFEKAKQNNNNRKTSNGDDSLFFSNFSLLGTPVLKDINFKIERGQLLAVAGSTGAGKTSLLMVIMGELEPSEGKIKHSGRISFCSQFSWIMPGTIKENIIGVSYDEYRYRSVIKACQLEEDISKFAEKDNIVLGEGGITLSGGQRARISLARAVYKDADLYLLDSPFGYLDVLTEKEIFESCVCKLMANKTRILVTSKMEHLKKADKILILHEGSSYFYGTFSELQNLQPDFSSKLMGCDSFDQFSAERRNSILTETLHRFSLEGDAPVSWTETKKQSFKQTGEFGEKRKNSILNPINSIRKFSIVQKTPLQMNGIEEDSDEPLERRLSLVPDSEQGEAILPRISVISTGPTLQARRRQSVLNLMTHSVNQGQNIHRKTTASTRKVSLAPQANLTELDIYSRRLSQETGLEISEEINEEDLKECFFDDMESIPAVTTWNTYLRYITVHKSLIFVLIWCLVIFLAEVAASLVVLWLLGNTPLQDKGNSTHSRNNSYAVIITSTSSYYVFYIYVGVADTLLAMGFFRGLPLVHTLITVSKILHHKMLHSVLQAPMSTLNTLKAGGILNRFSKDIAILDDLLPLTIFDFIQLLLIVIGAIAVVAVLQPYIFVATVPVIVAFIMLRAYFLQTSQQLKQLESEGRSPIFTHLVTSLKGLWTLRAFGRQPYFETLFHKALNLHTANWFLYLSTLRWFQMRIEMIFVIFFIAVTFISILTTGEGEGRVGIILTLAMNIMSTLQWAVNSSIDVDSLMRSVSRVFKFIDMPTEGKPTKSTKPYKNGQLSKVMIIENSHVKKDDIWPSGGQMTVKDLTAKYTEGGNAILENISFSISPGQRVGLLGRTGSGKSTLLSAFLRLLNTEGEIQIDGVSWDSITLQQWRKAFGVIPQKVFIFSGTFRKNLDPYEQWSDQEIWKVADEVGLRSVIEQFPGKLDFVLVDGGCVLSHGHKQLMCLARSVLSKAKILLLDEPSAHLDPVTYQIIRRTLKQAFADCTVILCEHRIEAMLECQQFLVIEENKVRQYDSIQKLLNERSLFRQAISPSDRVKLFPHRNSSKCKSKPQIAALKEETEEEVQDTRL",
  "assay": "Cell surface ELISA (anti-HA) in HeLa cells stably expressing HA-tagged CFTR-ΔF508",
  "format": "cell-based",
  "conditions": "HeLa-ΔF508-CFTR-HA cells treated daily with drugs, 72 hr post-treatment, vs DMSO (FIG. 28, 29)",
  "data": [
    {"molecule": "CN(C)C(=O)Oc1ccc[n+](C)c1", "note": "[Pyridostigmine]", "values": [
      {"measurement": "surface display of ΔF508-CFTR (live cell-surface ELISA)", "result": "rescues ΔF508-CFTR trafficking"},
      {"measurement": "surface display of ΔF508-CFTR (live cell-surface ELISA)", "setting": "listed as pyridostigmine", "result": "increased"}
    ]},
    {"molecule": "CN(C)C(=O)Oc1cccc([N+](C)(C)C)c1", "note": "[Neostigmine, 3-{[(dimethylamino)carbonyl]oxy}-N,N,N-trimethylbenzenaminium]", "values": [
      {"measurement": "surface display of ΔF508-CFTR (live cell-surface ELISA)", "result": "increased"}
    ]}
  ]
}
